pIC50: −log10 of the molar value. Read-outs that look alike come from different tables or passages of the source.
Columns and labels:
[1] = test system: Aβ40 in conditioned medium of cells stably expressing Amyloid Precursor Protein (APP); assay: In vitro BACE cell-based assay (Aβ40 in conditioned medium, sandwich ELISA); conditions: Homo sapiens; for IC50: IC50's in uM;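 on all read-outs here: compounds added as a dilution series, secreted peptide quantified by europium time-resolved fluorescence readout, potency fitted from percent of control versus compound concentration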
[2] = biological target: Beta Secretase enzyme (BACE) (Homo sapiens, UniProt P56817); assay: In vitro enzymatic BACE FRET (fluorescence resonance energy transfer) assay; type: biochemical; conditions: for IC50: IC50's in uM;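 on all read-outs here: fluorescence read after 1 h with 50 nM quenched peptide substrate spanning the BACE cleavage site, in pH 4.2 acetate buffer containing 10% DMSO and nonionic detergent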
Chain of Beta Secretase enzyme (BACE) (P56817 46-501): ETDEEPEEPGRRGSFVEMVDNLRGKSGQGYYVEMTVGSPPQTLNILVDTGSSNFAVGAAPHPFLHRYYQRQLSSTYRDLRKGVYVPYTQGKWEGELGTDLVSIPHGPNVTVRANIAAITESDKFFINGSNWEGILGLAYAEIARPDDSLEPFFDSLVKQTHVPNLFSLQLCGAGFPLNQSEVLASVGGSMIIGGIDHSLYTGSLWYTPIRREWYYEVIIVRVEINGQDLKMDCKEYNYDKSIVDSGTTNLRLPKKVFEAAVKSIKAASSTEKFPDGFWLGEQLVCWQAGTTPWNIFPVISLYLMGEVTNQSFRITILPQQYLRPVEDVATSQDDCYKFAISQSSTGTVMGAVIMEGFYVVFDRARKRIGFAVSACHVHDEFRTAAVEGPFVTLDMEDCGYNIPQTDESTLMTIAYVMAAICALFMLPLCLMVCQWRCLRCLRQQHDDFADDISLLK

CYP3A4 (CYP3A) = CYP3A4 (CYP3A) (Homo sapiens, UniProt P08684); assay: in vitro; conditions: microsomes, pH 7.4;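 further: inhibition of CYP3A-mediated 1-hydroxymidazolam formation after 10 min incubation with NADPH, quantified by HPLC MS relative to metabolite produced without test compound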
Chain of CYP3A4 (CYP3A) (P08684 2-503): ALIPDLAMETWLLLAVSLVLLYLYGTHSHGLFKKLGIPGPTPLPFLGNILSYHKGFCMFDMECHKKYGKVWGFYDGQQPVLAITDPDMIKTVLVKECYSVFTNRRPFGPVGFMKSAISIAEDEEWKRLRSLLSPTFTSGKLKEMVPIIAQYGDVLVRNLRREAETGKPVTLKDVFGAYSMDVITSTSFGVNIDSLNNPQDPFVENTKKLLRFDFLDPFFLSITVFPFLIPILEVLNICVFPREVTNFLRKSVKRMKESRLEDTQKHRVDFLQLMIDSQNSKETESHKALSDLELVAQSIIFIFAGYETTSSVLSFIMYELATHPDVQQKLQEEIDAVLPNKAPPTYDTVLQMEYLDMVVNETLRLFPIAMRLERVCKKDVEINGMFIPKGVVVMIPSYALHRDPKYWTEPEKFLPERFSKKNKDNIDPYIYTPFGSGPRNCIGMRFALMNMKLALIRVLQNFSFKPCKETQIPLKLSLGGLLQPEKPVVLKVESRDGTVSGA

[3] = Microsomal stability assay, rat liver microsomes;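 further: rat liver microsomes (0.25 mg/mL) with about 1 µM compound plus 1 mM NADPH, pH 7.4, 37 °C for 30 min, parent left measured by LC-MS/MS against 0 min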
CYP2D6 = CYP2D6 (Homo sapiens, UniProt P10635); assay: CYP2D6 inhibition assay (bufuralol, pooled human liver microsomes); conditions: for IC50: 2D6 IC50 (uM)
Chain of CYP2D6 (P10635 whole entry): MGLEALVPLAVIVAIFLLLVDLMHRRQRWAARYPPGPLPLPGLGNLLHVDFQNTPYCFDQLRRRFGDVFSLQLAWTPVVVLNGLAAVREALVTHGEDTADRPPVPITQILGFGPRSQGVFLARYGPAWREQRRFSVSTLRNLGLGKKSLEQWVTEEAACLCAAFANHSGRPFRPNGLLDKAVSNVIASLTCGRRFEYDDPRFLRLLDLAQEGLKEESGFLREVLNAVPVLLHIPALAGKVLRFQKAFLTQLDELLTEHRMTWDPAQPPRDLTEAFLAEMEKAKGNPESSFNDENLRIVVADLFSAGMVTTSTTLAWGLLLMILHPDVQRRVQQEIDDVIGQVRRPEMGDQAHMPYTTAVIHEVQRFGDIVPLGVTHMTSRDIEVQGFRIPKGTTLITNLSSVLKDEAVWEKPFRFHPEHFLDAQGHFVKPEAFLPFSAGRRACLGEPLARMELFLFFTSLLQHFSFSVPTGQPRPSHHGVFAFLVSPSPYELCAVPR

[4] = Microsomal stability assay, human liver microsomes;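 further: pooled human liver microsomes at 0.25 mg/mL with 1 µM compound and NADPH at 37 °C, pH 7.4, for 30 min, unchanged parent quantified by LC-MS/MS against the 0 min sample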
[5] = HEK293, HEK cell-based assay IC50, read-out: HEK cell assay
[6] = BACE enzyme assay IC50, read-out: BACE1 FRET assay
[7] = HEK293, HEK cells, read-out: HEK cell assay
[8] = BACE enzyme assay, read-out: BACE1 FRET assay
[9] = HEK293, HEK cells, read-out: HEK cell assay (IC50)
[10] = read-out: BACE1 FRET assay (IC50)
[11] = HEK293, Table 2, HEK cells, read-out: HEK cell assay
[12] = Table 2, read-out: BACE1 FRET assay
[13] = 2D6 IC50, CYP enzyme inhibition

Row | SMILES | pIC50 (CYP3A4 (CYP3A)) | RLM ([3]; rat liver microsomes) | HLM ([4]; human liver microsomes) | pIC50 [1, 7] | pIC50 [2, 8] | RLM ([3]; rat liver microsomal data) | IC50 (CYP2D6; CYP enzyme inhibition) | HLM ([4]; human liver microsomal data) | further results
1 | CNc1nc(CC(C)C)cc2c1OC1(CCC1)C[C@@H]2NC[C@@H](O)[C@H](Cc1ccc2c(c1)OCO2)NC(=O)[C@@H](C)OC [compound 680] | 6.30 | 317 µL/min/mg | 220 µL/min/mg | – | – | – | – | – | pIC50 [1, 5]: 7.60; pIC50 [2, 6]: 6.85; IC50 (CYP2D6; CYP2D6 inhibition): 14 µM
2 | CO[C@H](C)C(=O)N[C@@H](Cc1cc(F)cc(F)c1)[C@H](O)CN[C@H]1CC2(CCC2)Oc2cnc(CC(C)C)cc21 [compound 688] | 6.70 | 399 µL/min/mg | 921 µL/min/mg | – | – | – | – | – | pIC50 [1, 5]: 7.44; pIC50 [2, 6]: 8.05; IC50 (CYP2D6; CYP2D6 inhibition): 3 µM
3 | CC[C@@H](OC)C(=O)N[C@@H](Cc1ccc(F)cc1)[C@H](O)CN[C@H]1CC2(CCC2)Oc2ncc(CC(C)(C)C)cc21 [compound 566] | 6.52 | – | – | 6.78 | 7.59 | 590 µL/min/mg | 13 µM | 392 µL/min/mg | –
4 | COCC(=O)N[C@@H](Cc1cc(F)cc(F)c1)[C@H](O)CN[C@H]1CC2(CCC2)Oc2c1cc(CC(C)(C)C)nc2Nc1ccncc1 [compound 571] | 7.00 | – | – | 8.52 | 7.28 | 193 µL/min/mg | 2.3 µM | 142 µL/min/mg | –
5 | CC(=O)N[C@@H](Cc1ccc(F)c(-n2ccnc2)c1)[C@H](O)CN[C@H]1CC2(CCC2)Oc2ncc(CC(C)(C)C)cc21 [Example 426, N-((1S,2R)-3-(((4′S)-6′-(2,2-dimethylpropyl)-3′,4′-dihydrospiro[cyclobutane-1,2′-pyrano[2,3-b]pyridin]-4′-yl)amino)-1-(4-fluoro-3-(1H-imidazol-1-yl)benzyl)-2-hydroxypropyl)acetamide] | ≥ 7.52 | 14 µL/min/mg | 22 µL/min/mg | – | – | – | – | – | pIC50 [1, 5]: 7.96; pIC50 [2, 6]: 7.51; IC50 (CYP2D6; CYP2D6 inhibition): 0.1 µM
6 | CC(=O)N[C@@H](Cc1cc(F)cc(-c2ccco2)c1)[C@H](O)CN[C@H]1CC2(CCC2)Oc2ccc(CC(C)(C)C)cc21 [compound 646] | 5.70 | 344 µL/min/mg | 326 µL/min/mg | – | – | – | – | – | pIC50 [1, 9]: 6.98; pIC50 [2, 10]: 8.40; pIC50 (CYP2D6; 2D6 IC50, CYP2D6 inhibition): 5.80
7 | CO[C@H](C)C(=O)N[C@@H](Cc1cc(F)cc(F)c1)[C@H](O)CN[C@H]1CC2(CCC2)Oc2c(-c3ccncc3)cc(Cl)cc21 [compound 561] | 7.00 | – | – | 6.58 | 7.04 | 426 µL/min/mg | 0.4 µM | 113 µL/min/mg | –
8 | COCC(=O)N[C@@H](Cc1ccc(F)cc1)[C@H](O)CN[C@H]1CC2(CCC2)Oc2c1cc(CC(C)(C)C)nc2Nc1ccccc1 [compound 612] | ≤ 4.57 | 245 µL/min/mg | 176 µL/min/mg | – | – | – | – | – | pIC50 [1, 9]: < 5.00; pIC50 [2, 10]: 6.68; pIC50 (CYP2D6; 2D6 IC50, CYP2D6 inhibition): ≤ 4.57
9 | CC(=O)N[C@@H](Cc1ccc(F)c(-c2ccncc2)c1)[C@H](O)CN[C@H]1CC2(CCC2)Oc2ccc(CC(C)(C)C)cc21 [compound 625] | 6.80 | 330 µL/min/mg | 389 µL/min/mg | – | – | – | – | – | pIC50 [1, 9]: 7.24; pIC50 [2, 10]: 7.38; pIC50 (CYP2D6; 2D6 IC50, CYP2D6 inhibition): 6.70
10 | CN1CCO[C@@H](C(=O)N[C@@H](Cc2ccc(F)cc2)[C@H](O)CN[C@H]2CC3(CCC3)Oc3ncc(CC(C)(C)C)cc32)C1 [compound 739] | 6.10 | 239 µL/min/mg | 266 µL/min/mg | – | – | – | – | – | pIC50 [1, 5]: 8.10; pIC50 [2, 6]: 7.19; IC50 (CYP2D6; CYP2D6 inhibition): 6.7 µM
11 | CC(=O)N[C@@H](Cc1cccc(F)c1)[C@H](O)CN[C@H]1CC2(CCC2)Oc2c1cc(CC(C)(C)C)nc2-c1ccncc1 [compound 532] | 6.70 | – | – | 7.66 | 7.92 | 91 µL/min/mg | 2.6 µM | 40 µL/min/mg | –
12 | CO[C@H](C)C(=O)N[C@@H](Cc1cc(F)cc(F)c1)[C@H](O)CN[C@H]1CC2(CCC2)Oc2c1cc(CC(C)(C)C)nc2-n1ccnc1 [compound 495] | 7.00 | – | – | 7.10 | 7.70 | 62 µL/min/mg | 2 µM | 41 µL/min/mg | –
13 | CO[C@H](C)C(=O)N[C@@H](Cc1ccc(-c2nccs2)cc1)[C@H](O)CN[C@H]1CC2(CCC2)Oc2ncc(CC(C)(C)C)cc21 [compound 735] | ≥ 7.52 | 80 µL/min/mg | 78 µL/min/mg | – | – | – | – | – | pIC50 [1, 5]: 7.22; pIC50 [2, 6]: 7.31; IC50 (CYP2D6; CYP2D6 inhibition): 1 µM
14 | COCC(=O)N[C@@H](Cc1cccc(C#N)c1)[C@H](O)CN[C@H]1CC2(CC(F)(F)C2)Oc2ncc(CC(C)(C)C)cc21 [compound 470] | 5.96 | – | – | – | – | 560 µL/min/mg | – | 579 µL/min/mg | pIC50 [1, 11]: 7.85; pIC50 [2, 12]: 8.40; pIC50 (CYP2D6; [13]): 5.24
15 | COCC(=O)N[C@@H](Cc1cc(F)cc(F)c1)[C@H](O)CN[C@H]1CC2(CCC2)Oc2c(-c3ccncc3)cc(Cl)cc21 [compound 560] | 6.70 | – | – | 7.24 | 7.31 | 829 µL/min/mg | 0.4 µM | 209 µL/min/mg | –
16 | CC#Cc1ccc2c(c1)[C@@H](NC[C@@H](O)[C@H](Cc1cc(F)cc(-c3nccs3)c1)NC(=O)COC)CC1(CCC1)O2 [compound 806] | 6.70 | – | – | – | – | 92 µL/min/mg | 0.6 µM | 61 µL/min/mg | IC50 ([1]; HEK293, HEK cell-based assay, read-out: HEK cell assay): 4.15 µM; IC50 [2, 8]: 0.669 µM
17 | COCC(=O)N[C@@H](Cc1cccc(F)c1)[C@H](O)CN[C@H]1CC2(CCC2)Oc2c1cc(CC(C)(C)C)cc2-n1ccnc1 [compound 505] | 7.00 | – | – | 8.22 | 7.72 | 153 µL/min/mg | 1.9 µM | 51.5 µL/min/mg | –
18 | COCC(=O)N[C@@H](Cc1cccc(F)c1)[C@H](O)CN[C@H]1CC2(CCC2)Oc2c(Br)cc(CC(C)C)cc21 [compound 514] | 5.82 | – | – | 6.89 | 8.52 | 560 µL/min/mg | 6 µM | 682 µL/min/mg | –
19 | CO[C@H](C)C(=O)N[C@@H](Cc1ccc2c(c1)OCO2)[C@H](O)CN[C@H]1CC2(CCC2)Oc2ncc(CC(F)(F)F)cc21 [compound 519] | 6.52 | – | – | 6.09 | 6.59 | 71 µL/min/mg | 7.4 µM | 33 µL/min/mg | –
20 | COCC(=O)N[C@@H](Cc1ccc(F)cc1)[C@H](O)CN[C@H]1CC(C)(C)Oc2c1cc(Br)c1c2OCO1 [compound 745] | 6.30 | 177 µL/min/mg | 179 µL/min/mg | – | – | – | – | – | pIC50 [1, 5]: 6.64; pIC50 [2, 6]: 5.24; IC50 (CYP2D6; CYP2D6 inhibition): 3.1 µM
21 | CO[C@H](C)C(=O)N[C@@H](Cc1cccc(F)c1)[C@H](O)CN[C@H]1CC2(CCC2)Oc2c(-c3cscn3)cc(CC(C)C)cc21 [compound 524] | 6.30 | – | – | 7.19 | 8.10 | 472 µL/min/mg | 7.5 µM | 492 µL/min/mg | –
22 | COCC(=O)N[C@@H](Cc1cccc([C@H]2CCCO2)c1)[C@H](O)CN[C@H]1CC2(CCC2)Oc2ncc(CC(C)(C)C)cc21 [compound 916] | 6.40 | – | – | – | – | 644 µL/min/mg | – | 399 µL/min/mg | IC50 ([1]; HEK293, cell-based assay, HEK cells, read-out: HEK cell assay): 2.25 µM; IC50 [2, 8]: 9.5 µM; pIC50 (CYP2D6; [13]): 5.09
23 | COCC(=O)N[C@@H](Cc1cc(F)cc(F)c1)[C@H](O)CN[C@H]1CC2(CCC2)Oc2c(-c3cncn3C)cc(CC(C)C)cc21 [compound 631] | 7.00 | 209 µL/min/mg | 36 µL/min/mg | – | – | – | – | – | pIC50 [1, 9]: 8.40; pIC50 [2, 10]: 7.72; pIC50 (CYP2D6; 2D6 IC50, CYP2D6 inhibition): 5.41
24 | CC(=O)N[C@@H](Cc1ccc(F)cc1)[C@H](O)CN[C@H]1CC2(CCC2)Oc2c1cc(CC(C)(C)C)nc2NC1CCC1 [compound 497] | 5.48 | – | – | 7.00 | 7.11 | 172 µL/min/mg | 2.6 µM | 157 µL/min/mg | –
25 | CNc1nc(CC(C)(C)C)cc2c1OC1(CCC1)C[C@@H]2NC[C@@H](O)[C@H](Cc1ccc(F)c(-c2nccs2)c1)NC(=O)COC [compound 716, N-((1S,2R)-3-(((4′S)-6′-(2,2-dimethylpropyl)-8′-(methylamino)-3′,4′-dihydrospiro[cyclobutane-1,2′-pyrano[2,3-c]pyridin]-4′-yl)amino)-1-(4-fluoro-3-(1,3-thiazol-2-yl)benzyl)-2-hydroxypropyl)-2-methoxyacetamide] | 6.40 | 190 µL/min/mg | 123 µL/min/mg | – | – | – | – | – | pIC50 [1, 5]: 7.60; pIC50 [2, 6]: 7.49; IC50 (CYP2D6; CYP2D6 inhibition): 1.5 µM
26 | CC(=O)C(C)(C)C(=O)N[C@@H](Cc1cccc(F)c1)[C@H](O)CN[C@H]1CC2(CCC2)Oc2ncc(CC(C)(C)C)cc21 [compound 467] | 6.40 | – | – | – | – | 292 µL/min/mg | – | 399 µL/min/mg | pIC50 [1, 11]: 6.68; pIC50 [2, 12]: 7.20; pIC50 (CYP2D6; [13]): 5.14
